In patent publication US6610692B1, “Thrombin inhibitors” (Merck & Co., Inc., priority 1998, dated 2003):

Biological target: human α-thrombin (Homo sapiens, UniProt P00734)
Experiment: In vitro assay for determining proteinase inhibition: thrombin (sar-PR-pna or Z-GPR-afc substrate)
Format: biochemical
Settings: not given
Protocol: In vitro Assay for Determining Proteinase Inhibition
The assays were carried out at 25° C. in 0.05 M TRIS buffer pH 7.4, 0.15 M NaCl, 0.1% PEG. Trypsin assays also contained 1 mM CaCl2.
Concentrations of stock solutions of Z-GPR-afc were determined from measurements of absorbance at 380 nm of the 7-amino-4-trifluoromethyl coumarin produced upon complete hydrolysis of an aliquot of the stock solution by thrombin.
Times required to achieve equilibration between enzyme and inhibitor were determined in control experiments. Initial velocities of product formation in the absence (Vo) or presence of inhibitor (Vi) were measured. Assuming competitive inhibition, and that unity is negligible compared Km/[S], [I]/e, and [I]/e (where [S], [I], and e respectively represent the total concentrations, of substrate, inhibitor and enzyme), the equilibrium constant (Ki) for dissociation of the inhibitor from the enzyme can be obtained from the dependence of Vo, Vi on [I] shown in equation 1: […]

Row | Ki [µM] | SMILES
1 | < 0.02 | Cc1cnc(NCCc2ccccn2)c(=O)n1CC(=O)NCc1cnc2[nH]ccc2c1

Same assay, conditions: Table 1; 25° C., 0.05 M TRIS buffer pH 7.4, 0.15 M NaCl, 0.1% PEG; read-out: Inhibitory activity (Ki)

Row | SMILES | Ki [µM]
2 | Cc1cnc(NCCc2ccccc2)c(=O)n1CC(=O)NCc1ccc2[nH]cc(Cl)c2c1 [drawing 39] | < 0.02
3 | Cc1cnc(NCCc2ccccc2)c(=O)n1CC(=O)NCc1cnc2[nH]nc(N)c2c1 | > 0.02
4 | Cc1cc2c(c(=O)n1CC(=O)NCc1cc3cc[nH]c3cn1)NC(=O)[C@H](CC1CCC1)C2 | < 0.02
5 | Cc1cnc(NCC(F)(F)CC2CC2)c(=O)n1CC(=O)NCc1ccc2[nH]ccc2n1 | < 0.02
6 | Cc1cnc(NCC(F)(F)c2ccccn2)c(=O)n1CC(=O)NCc1ccc2[nH]ccc2n1 | < 0.02
7 | Cc1cnc(NCCc2ccccc2)c(=O)n1CC(=O)NCc1cnc2[nH]cnc2c1 | > 0.02
8 | Cc1cnc(NCCc2cccnc2)c(=O)n1CC(=O)NCc1ccc2[nH]ccc2c1 | < 0.02
9 | Cc1cnc(NCC(F)(F)c2ccccn2)c(=O)n1CC(=O)NCc1ccc2[nH]ccc2c1 | < 0.02
10 | Cc1cnc(NCCc2ccccc2)c(=O)n1CC(=O)NCc1ccc2c(cnn2C)c1 | > 0.02
11 | Cc1cc2c(c(=O)n1CC(=O)NCc1ccc3[nH]ccc3n1)NC(=O)[C@H](CC1CCC1)C2 | < 0.02
12 | Cc1cnc(NCCc2ccccc2)c(=O)n1CC(=O)NCc1ccc2[nH]nnc2c1 | > 0.02
13 | CCC[C@@H]1Cc2cc(C)n(CC(=O)NCc3ccc4[nH]ccc4c3)c(=O)c2NC1=O | < 0.02
14 | Cc1cnc(NCC(F)(F)c2ccccn2)c(=O)n1CC(=O)NCc1ccc2[nH]cnc2c1 | < 0.02
15 | Cc1nc2[nH]nnc2cc1CNC(=O)Cn1c(C)cnc(NCCc2ccccc2)c1=O | > 0.02
16 | Cc1cnc(NCCc2ccccn2)c(=O)n1CC(=O)NCc1ccc2[nH]cc(Cl)c2c1 [drawing 38] | < 0.02
17 | Cc1cc2[nH]cnc2cc1CNC(=O)Cn1c(C)cnc(NCCc2ccccn2)c1=O [drawing 19] | > 0.02
18 | Cc1cc2c(c(=O)n1CC(=O)NCc1ccc3[nH]ccc3n1)NC(=O)[C@H](CC1CC1)C2 | < 0.02
19 | Cc1cc(SCC2CC2)c(N)c(=O)n1CC(=O)NCc1ccc2[nH]cnc2c1 | > 0.02
20 | Cc1cc(SCC2CCC2)c(N)c(=O)n1CC(=O)NCc1ccc2[nH]cnc2c1 | < 0.02
21 | Cc1cnc(NCCc2ccccc2)c(=O)n1CC(=O)NCc1ccc2[nH]nc(N)c2c1 | > 0.02
22 | Cc1cnc(NCC2(c3ccccn3)CC2)c(=O)n1CC(=O)NCc1ccc2[nH]ccc2c1 [drawing 16] | < 0.02
23 | Cc1cnc(NCC(F)(F)c2ccccc2)c(=O)n1CC(=O)NCc1cc2cc[nH]c2cn1 | < 0.02
24 | Cc1cc2c(c(=O)n1CC(=O)NCc1ccc3[nH]ccc3n1)NC(=O)[C@H](CC(C)C)C2 | < 0.02
25 | Cc1cc(SCC2CCC2)c(N)c(=O)n1CC(=O)NCc1cnc2[nH]cnc2c1 | > 0.02

Now from value to molecule:

Row | Ki [µM] | SMILES
26 | < 0.02 | Cc1cnc(NCCc2ccc3c(c2)OCO3)c(=O)n1CC(=O)NCc1ccc2[nH]ccc2c1
27 | < 0.02 | Cc1cnc(NCC2(c3ccccn3)CC2)c(=O)n1CC(=O)NCc1ccc2[nH]cnc2c1 [drawing 18]
28 | > 0.02 | Cc1c(CNC(=O)Cn2c(C)cnc(NCCc3ccccc3)c2=O)cnc2[nH]ccc12
29 | > 0.02 | Cc1noc2ccc(CNC(=O)Cn3c(C)cnc(NCCc4ccccn4)c3=O)cc12
30 | < 0.02 | Cc1cnc(NCC(F)(F)c2ccccc2)c(=O)n1CC(=O)NCc1cnc2[nH]cnc2c1
31 | < 0.02 | Cc1cc2c(c(=O)n1CC(=O)NCc1ccc3[nH]ccc3c1)NC(=O)[C@H](CC1CCC1)C2
32 | > 0.02 | Cc1cnc(NCCc2ccccn2)c(=O)n1CC(=O)NCc1ccc2c(cnn2C)c1
33 | < 0.02 | Cc1cnc(NCC(F)(F)c2ccccc2)c(=O)n1CC(=O)NCc1ccc2[nH]cnc2c1
34 | > 0.02 | Cc1cc(SCC2CC2)c(N)c(=O)n1CC(=O)NCc1cnc2[nH]cnc2c1
35 | < 0.02 | Cc1cnc(NCCc2ccccc2)c(=O)n1CC(=O)NCc1cc2c(Cl)c[nH]c2cn1
36 | < 0.02 | Cc1cnc(NCCc2ccc3c(c2)OCO3)c(=O)n1CC(=O)NCc1ccc2[nH]ncc2c1
37 | < 0.02 | Cc1cnc(NCC(F)(F)c2ccccn2)c(=O)n1CC(=O)NCc1cc2cc[nH]c2cn1
38 | < 0.02 | Cc1cnc(NCCc2ccccn2)c(=O)n1CC(=O)NCc1ccc2[nH]ncc2c1
39 | < 0.02 | Cc1cnc(NCCCCC2CC2)c(=O)n1CC(=O)NCc1cc2cc[nH]c2cn1
40 | < 0.02 | Cc1cnc(NCCc2ccccc2)c(=O)n1CC(=O)NCc1ccc2[nH]ncc2c1
41 | > 0.02 | Cc1nc2cc(CNC(=O)Cn3c(C)cnc(NCC(F)(F)c4ccccc4)c3=O)ccc2[nH]1
42 | > 0.02 | Cc1cc(SCC2CCC2)c(N)c(=O)n1CC(=O)NCc1ccc2[nH]nc(N)c2c1
43 | < 0.02 | Cc1cc2c(c(=O)n1CC(=O)NCc1cnc3[nH]ccc3c1)NC(=O)[C@H](CC1CCC1)C2
44 | < 0.02 | Cc1cnc(NCC(F)(F)c2ccccc2)c(=O)n1CC(=O)NCc1ccc2[nH]nc(N)c2c1
45 | < 0.02 | Cc1cnc(NCC(F)(F)c2ccccc2)c(=O)n1CC(=O)NCc1ccc2[nH]ncc2c1
46 | < 0.02 | Cc1cc2c(c(=O)n1CC(=O)NCc1ccc3[nH]ncc3c1)NC(=O)[C@H](CC1CCC1)C2
47 | < 0.02 | Cc1cnc(NCCc2ccccn2)c(=O)n1CC(=O)NCc1cc2c(Cl)c[nH]c2cn1
48 | < 0.02 | Cc1cc2[nH]cnc2cc1CNC(=O)Cn1c(C)cnc(NCC2(c3ccccn3)CC2)c1=O [drawing 20]
49 | < 0.02 | Cc1cnc(NCC(F)(F)c2ccccn2)c(=O)n1CC(=O)NCc1cnc2[nH]cnc2c1
50 | > 0.02 | Cc1cnc(NCCc2ccccc2)c(=O)n1CC(=O)NCc1cc2nc[nH]c2cn1

Tested on: not given
Experiment: not given
Settings: not given

Row | melting point [°C] | SMILES
51 | 175 to 184 | Cc1cc2[nH]cnc2cc1CNC(=O)Cn1c(C)cnc(NCCc2ccccn2)c1=O [Example 33, 3-[2-(2-Pyridyl)ethylamino]-6-methyl-1-(5-methylenecarboxamidomethyl-6-methylbenzimidazolyl)-pyrazinone]
52 | 146 to 154 | Cc1cc2[nH]cnc2cc1CNC(=O)Cn1c(C)cnc(NCC2(c3ccccn3)CC2)c1=O [Example 34, 3-[1-(2-Pyridyl)-cyclopropylmethylamino]-6-methyl-1-(5-methylenecarboxamidomethyl-6-methylbenzimidazolyl)-pyrazinone]
53 | 134 to 139 | Cc1cnc(NCC2(c3ccccn3)CC2)c(=O)n1CC(=O)NCc1ccc2[nH]cnc2c1 [Example 41, 3-[1-(2-Pyridyl)cyclopropylmethylamino]-6-methyl-1-(5-methylenecarboxamidomethyl-benzimidazolyl)-pyrazinone]
54 | 212 to 215 | Cc1cnc(NCC2(c3ccccn3)CC2)c(=O)n1CC(=O)NCc1ccc2[nH]ccc2c1 [Example 39, 3-[1-(2-Pyridyl)cyclopropylmethylamino]-6-methyl-1-(5-methylenecarboxamidomethylindolyl)-pyrazinone]
55 | 223 to 226 | Cc1cnc(NCCc2ccccc2)c(=O)n1CC(=O)NCc1ccc2[nH]cc(Cl)c2c1 [Example 36, 3-(2-Phenethylamino)-6-methyl-1-(3-chloro-5-methylenecarboxamidomethylindolyl)-pyrazinone]
56 | 224 to 226 | Cc1cnc(NCCc2ccccn2)c(=O)n1CC(=O)NCc1ccc2[nH]cc(Cl)c2c1 [Example 35, 3-[2-(2-Pyridyl)ethylamino]-6-methyl-1-(3-chloro-5-methylene-carboxamidomethylindolyl)-pyrazinone]
